Data from PubChem BioAssay AID256 (DTP/NCI, 2004).
Values joined by “and” are separate entries in the source; they are usually repeats but may differ in a detail not shown here. Equal entries are not always repeated. Inconclusive results and toxic doses are left out. The calls were made as follows: active = survival T/C of 150% or more; inactive = T/C below 125% in these data.

Test system: CD2F1 mice, L1210 leukemia ip, survival T/C
Assay: NCI In Vivo Anticancer Drug Screen. Data for tumor model L1210 Leukemia (intraperitoneal) in CD2F1 (CDF1) mice
Settings: higher = longer survival
How it was run: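 Vehicle-treated tumor-bearing mice served as controls (C) for compound-treated mice (T). Reported figure is T divided by C.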

[1] = endpoint: mean survival time, dose: 50.0 mg/kg/injection, schedule: Q04DX002 (ip), vehicle: saline with Tween-80
[2] = endpoint: mean survival time, dose: 100.0 mg/kg/injection, schedule: Q04DX002 (ip), vehicle: saline with Tween-80
[3] = endpoint: mean survival time, dose: 100.0 mg/kg/injection, schedule: Q01DX001 (ip), vehicle: saline
[4] = endpoint: mean survival time, dose: 200.0 mg/kg/injection, schedule: Q01DX001 (ip), vehicle: saline
[5] = endpoint: mean survival time, dose: 400.0 mg/kg/injection, schedule: Q01DX001 (ip), vehicle: saline
[6] = endpoint: mean survival time, dose: 100.0 mg/kg/injection, schedule: Q01DX001 (ip), vehicle: saline with Tween-80
[7] = endpoint: mean survival time, dose: 100.0 mg/kg/injection, schedule: Q01DX009 (ip), vehicle: saline with Tween-80
[8] = endpoint: mean survival time, dose: 100.0 mg/kg/injection, schedule: Q04DX003 (ip), vehicle: saline with Tween-80
[9] = endpoint: mean survival time, dose: 200.0 mg/kg/injection, schedule: Q01DX001 (ip), vehicle: saline with Tween-80
[10] = endpoint: mean survival time, dose: 200.0 mg/kg/injection, schedule: Q01DX009 (ip), vehicle: saline with Tween-80
[11] = endpoint: mean survival time, dose: 200.0 mg/kg/injection, schedule: Q04DX002 (ip), vehicle: saline with Tween-80
[12] = endpoint: mean survival time, dose: 200.0 mg/kg/injection, schedule: Q04DX003 (ip), vehicle: saline with Tween-80
[13] = endpoint: mean survival time, dose: 400.0 mg/kg/injection, schedule: Q01DX001 (ip), vehicle: saline with Tween-80
[14] = endpoint: mean survival time, dose: 400.0 mg/kg/injection, schedule: Q01DX009 (ip), vehicle: saline with Tween-80
[15] = endpoint: mean survival time, dose: 400.0 mg/kg/injection, schedule: Q04DX002 (ip), vehicle: saline with Tween-80
[16] = endpoint: mean survival time, dose: 400.0 mg/kg/injection, schedule: Q04DX003 (ip), vehicle: saline with Tween-80
[17] = endpoint: mean survival time, dose: 25.0 mg/kg/injection, schedule: Q04DX003 (ip), vehicle: saline with Tween-80
[18] = endpoint: mean survival time, dose: 50.0 mg/kg/injection, schedule: Q04DX003 (ip), vehicle: saline with Tween-80

Measured: T/C

Cc1cn(C2OC(CO)C(O)C2O)c(=O)nc1N (configuration not stated)
inactive: endpoint: median survival time, dose: 25.0 mg/kg/injection, schedule: Q01DX005 (ip), vehicle: water 96 % of control | endpoint: median survival time, dose: 50.0 mg/kg/injection, schedule: Q01DX005 (ip), vehicle: water 104 % of control | endpoint: median survival time, dose: 100.0 mg/kg/injection, schedule: Q01DX005 (ip), vehicle: water 104 % of control | endpoint: median survival time, dose: 200.0 mg/kg/injection, schedule: Q01DX005 (ip), vehicle: water 104 % of control

CCOc1ccccc1C=C(C#N)C#N
inactive: endpoint: mean survival time, dose: 25.0 mg/kg/injection, schedule: Q04DX002 (ip), vehicle: saline with Tween-80 96 % of control | [1] 96 % of control | [2] 93 % of control

C/C(=N\NC(N)=S)c1c(O)cc(C)[nH]c1=O
inactive: [3] 97 % of control | [4] 101 % of control | [5] 98 % of control

CCCCCCCCCC(=O)NC(=S)Nc1c(C)cccc1C
inactive: endpoint: mean survival time, dose: 25.0 mg/kg/injection, schedule: Q01DX001 (ip), vehicle: saline with Tween-80 95 % of control | endpoint: mean survival time, dose: 50.0 mg/kg/injection, schedule: Q01DX001 (ip), vehicle: saline with Tween-80 95 % of control | [6] 92 % of control | [7] 92 % of control and 109 % of control | [2] 92 % of control and 96 % of control | [8] 98 % of control | [9] 91 % of control and 92 % of control | [10] 89 % of control and 98 % of control | [11] 98 % of control and 100 % of control | [12] 95 % of control | [13] 88 % of control | [14] 106 % of control | [15] 91 % of control and 96 % of control | [16] 90 % of control

CCCCCCC1=C(O)C(=O)C(CCCCCC)=C(O)C1=O
inactive: [3] 100 % of control | [4] 97 % of control | [5] 97 % of control

O=[N+]([O-])c1ccc(S(=O)(=O)Cc2ccccc2)c([N+](=O)[O-])c1
inactive: endpoint: mean survival time, dose: 75.0 mg/kg/injection, schedule: Q01DX001 (ip), vehicle: other 98 % of control | endpoint: mean survival time, dose: 150.0 mg/kg/injection, schedule: Q01DX001 (ip), vehicle: other 93 % of control | endpoint: mean survival time, dose: 300.0 mg/kg/injection, schedule: Q01DX001 (ip), vehicle: other 106 % of control

O=C1CC2C3C=CC4C3CC2C14 (configuration not stated)
inactive: endpoint: mean survival time, dose: 75.0 mg/kg/injection, schedule: Q01DX001 (ip), vehicle: saline with Tween-80 97 % of control | endpoint: mean survival time, dose: 150.0 mg/kg/injection, schedule: Q01DX001 (ip), vehicle: saline with Tween-80 101 % of control

Cn1sc2ccccc2c1=S
inactive: [8] 101 % of control | [12] 96 % of control | [16] 95 % of control

O=c1[nH]c(=O)n(C2CC(O)C(CO)O2)cc1C1SCCS1 (configuration not stated)
inactive: endpoint: mean survival time, dose: 3.8 mg/kg/injection, schedule: Q01DX005 (ip), vehicle: water 102 % of control | endpoint: mean survival time, dose: 7.5 mg/kg/injection, schedule: Q01DX005 (ip), vehicle: water 98 % of control | endpoint: mean survival time, dose: 15.0 mg/kg/injection, schedule: Q01DX005 (ip), vehicle: water 95 % of control | endpoint: mean survival time, dose: 30.0 mg/kg/injection, schedule: Q01DX005 (ip), vehicle: water 87 % of control | endpoint: mean survival time, dose: 60.0 mg/kg/injection, schedule: Q01DX005 (ip), vehicle: water 106 % of control

O=C1CCc2cccc3cccc(c23)N1
inactive: [8] 98 % of control | [12] 98 % of control | [16] 90 % of control

Cc1cc(O)c(C(C)(C)C)cc1C(c1ccccc1)c1cc(C(C)(C)C)c(O)cc1C
inactive: [6] 93 % of control | [9] 93 % of control | [13] 95 % of control

CSc1ccc(OC(=O)C(C)NC(=O)C(CO)NC(=O)OCc2ccccc2)cc1 (configuration not stated)
inactive: [1] 95 % of control | [2] 92 % of control | [11] 95 % of control | [15] 92 % of control

CNc1cc(=O)[nH]cn1
inactive: [6] 95 % of control | [9] 100 % of control | [13] 101 % of control

O=C(O)c1cc(Br)c(O)cc1O
inactive: [8] 97 % of control | [12] 97 % of control | [16] 87 % of control

N#Cc1cnn2ccn(C3OC(CO)C(O)C3O)c12 (configuration not stated)
inactive: endpoint: median survival time, dose: 9.38 mg/kg/injection, schedule: Q01DX005 (ip), vehicle: water 97 % of control | endpoint: median survival time, dose: 18.75 mg/kg/injection, schedule: Q01DX005 (ip), vehicle: water 100 % of control | endpoint: median survival time, dose: 37.5 mg/kg/injection, schedule: Q01DX005 (ip), vehicle: water 98 % of control | endpoint: median survival time, dose: 75.0 mg/kg/injection, schedule: Q01DX005 (ip), vehicle: water 98 % of control | endpoint: median survival time, dose: 150.0 mg/kg/injection, schedule: Q01DX005 (ip), vehicle: water 97 % of control

S=C(S)OCc1ccccc1.[Pt]
inactive: [17] 102 % of control | [18] 102 % of control | [8] 104 % of control | [12] 102 % of control | [16] 104 % of control

COc1cc2ccc(/C=N/NC(N)=S)cc2cc1OC
inactive: endpoint: mean survival time, dose: 25.0 mg/kg/injection, schedule: Q01DX009 (ip), vehicle: water 94 % of control | endpoint: mean survival time, dose: 50.0 mg/kg/injection, schedule: Q01DX009 (ip), vehicle: water 98 % of control | endpoint: mean survival time, dose: 100.0 mg/kg/injection, schedule: Q01DX009 (ip), vehicle: water 102 % of control | endpoint: mean survival time, dose: 200.0 mg/kg/injection, schedule: Q01DX009 (ip), vehicle: water 93 % of control

c1ccc(OCCC[P+](c2ccccc2)(c2ccccc2)c2ccccc2)cc1
inactive: endpoint: mean survival time, dose: 10.0 mg/kg/injection, schedule: Q01DX009 (ip), vehicle: saline 105 % of control | endpoint: mean survival time, dose: 20.0 mg/kg/injection, schedule: Q01DX009 (ip), vehicle: saline 95 % of control | endpoint: mean survival time, dose: 25.0 mg/kg/injection, schedule: Q01DX009 (ip), vehicle: saline with Tween-80 95 % of control | [17] 101 % of control | endpoint: mean survival time, dose: 50.0 mg/kg/injection, schedule: Q01DX009 (ip), vehicle: saline with Tween-80 113 % of control | [18] 92 % of control | [7] 111 % of control | [8] 92 % of control

COC(=O)C1=C(NC(=O)Nc2ccc(OC)cc2)OC(C)(C)C1c1ccc(Cl)cc1 (configuration not stated)
inactive: [7] 93 % of control | [8] 92 % of control | [10] 93 % of control | [12] 87 % of control | [14] 94 % of control | [16] 92 % of control

N#CC(C#N)=C1Cc2ccccc2C1
inactive: endpoint: mean survival time, dose: 12.5 mg/kg/injection, schedule: Q04DX003 (ip), vehicle: saline with Tween-80 93 % of control | [17] 100 % of control | [18] 94 % of control
